Among the targets are ACVR2B (Homo sapiens, UniProt Q13705); AKT1 (Homo sapiens, UniProt P31749); AKT2 (Homo sapiens, UniProt P31751); CDK8/cyclinC (Homo sapiens, UniProt P49336); DYRK1A (Homo sapiens, UniProt Q13627); EphB3 (Homo sapiens, UniProt P54753); ErbB2 (Homo sapiens, UniProt P04626); IRAK1 (Homo sapiens, UniProt P51617); MARK3 (Homo sapiens, UniProt P27448); NEK6 (Homo sapiens, UniProt Q9HC98); PLK2 (Homo sapiens, UniProt Q9NYY3); SRPK1 (Homo sapiens, UniProt Q96SB4); TNK2 (Homo sapiens, UniProt Q07912).

Experiment in all cases: biochemical
Common to all, as to parameters: Invitrogen kinase panel: Z'Lyte activity (ATP at Km) or LanthaScreen competitive ATP-site binding, percent inhibition
(TR-FRET usually uses a lanthanide donor and a delayed reading to cut background.)

The next experiment deals with T1, ALK2 (Homo sapiens, UniProt Q04771).
T1 construct: gene ACVR1
T1 sequence (Q04771 whole entry): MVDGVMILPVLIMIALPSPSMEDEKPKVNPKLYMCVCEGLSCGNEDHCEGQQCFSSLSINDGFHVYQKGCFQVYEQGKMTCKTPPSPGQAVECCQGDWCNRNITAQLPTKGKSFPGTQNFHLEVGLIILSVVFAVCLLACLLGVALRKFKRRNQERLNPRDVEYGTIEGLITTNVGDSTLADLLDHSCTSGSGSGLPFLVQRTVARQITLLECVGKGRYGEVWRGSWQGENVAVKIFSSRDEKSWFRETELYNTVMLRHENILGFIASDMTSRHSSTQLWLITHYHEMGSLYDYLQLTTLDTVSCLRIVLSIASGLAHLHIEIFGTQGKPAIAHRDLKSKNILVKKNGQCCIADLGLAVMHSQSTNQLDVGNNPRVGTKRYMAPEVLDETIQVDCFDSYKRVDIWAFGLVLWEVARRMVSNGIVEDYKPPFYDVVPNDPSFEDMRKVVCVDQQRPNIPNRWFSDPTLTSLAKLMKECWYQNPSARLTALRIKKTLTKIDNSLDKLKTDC

Another experiment concerns the target T2, CamKIV (Homo sapiens, UniProt Q16566).
T2 construct: gene CAMK4

The target of a further experiment is T3, DNA-PK (Homo sapiens, UniProt P78527).
T3 construct: gene PRKDC

A further experiment deals with T4, MST1 (Homo sapiens, UniProt Q13043).
T4 construct: gene STK4
T4 sequence (Q13043 whole entry): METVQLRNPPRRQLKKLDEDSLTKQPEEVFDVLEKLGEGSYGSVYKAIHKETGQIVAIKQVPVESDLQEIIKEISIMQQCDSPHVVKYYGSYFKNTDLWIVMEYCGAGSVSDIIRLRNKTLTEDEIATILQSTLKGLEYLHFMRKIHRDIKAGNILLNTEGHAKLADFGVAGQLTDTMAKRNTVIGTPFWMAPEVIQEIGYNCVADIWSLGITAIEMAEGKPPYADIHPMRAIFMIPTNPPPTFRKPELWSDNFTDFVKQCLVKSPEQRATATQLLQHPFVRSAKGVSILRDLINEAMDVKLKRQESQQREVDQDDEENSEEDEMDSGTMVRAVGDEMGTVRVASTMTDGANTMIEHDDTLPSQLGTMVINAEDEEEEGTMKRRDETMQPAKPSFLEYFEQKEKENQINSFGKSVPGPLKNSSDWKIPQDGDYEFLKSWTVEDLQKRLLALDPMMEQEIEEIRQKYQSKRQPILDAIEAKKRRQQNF

In another experiment the target is T5, MYLK3(caMLCK) (Homo sapiens, UniProt Q32MK0).
T5 construct: caMLCK
T5 sequence (Q32MK0 whole entry): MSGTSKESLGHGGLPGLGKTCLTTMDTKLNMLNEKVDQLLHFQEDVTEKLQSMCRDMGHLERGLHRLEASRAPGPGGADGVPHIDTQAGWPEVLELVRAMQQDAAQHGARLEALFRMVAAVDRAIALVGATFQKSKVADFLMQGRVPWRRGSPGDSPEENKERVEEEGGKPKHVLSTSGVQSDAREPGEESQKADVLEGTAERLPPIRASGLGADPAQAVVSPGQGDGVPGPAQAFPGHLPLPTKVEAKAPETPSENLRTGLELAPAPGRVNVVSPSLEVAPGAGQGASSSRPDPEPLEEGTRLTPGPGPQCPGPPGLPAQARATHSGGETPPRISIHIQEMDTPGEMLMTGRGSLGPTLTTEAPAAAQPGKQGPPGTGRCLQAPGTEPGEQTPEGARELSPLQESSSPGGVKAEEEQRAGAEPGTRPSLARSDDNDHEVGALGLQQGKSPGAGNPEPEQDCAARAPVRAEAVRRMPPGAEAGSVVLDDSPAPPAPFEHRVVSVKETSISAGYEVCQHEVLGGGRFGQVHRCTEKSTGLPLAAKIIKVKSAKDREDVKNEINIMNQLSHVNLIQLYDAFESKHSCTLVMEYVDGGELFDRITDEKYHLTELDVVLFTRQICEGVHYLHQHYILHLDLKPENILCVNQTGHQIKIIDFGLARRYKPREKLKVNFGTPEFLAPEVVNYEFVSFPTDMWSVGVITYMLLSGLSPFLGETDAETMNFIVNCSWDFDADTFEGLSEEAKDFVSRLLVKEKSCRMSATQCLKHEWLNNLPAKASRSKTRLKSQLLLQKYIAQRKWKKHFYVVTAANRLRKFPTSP

A further experiment has as its target T6, PDGFR_alpha (Homo sapiens, UniProt P16234).
T6 construct: gene PDGFRA

For the next experiment, the target named is T7, PDK1(direct) (Homo sapiens, UniProt O15530).
T7 construct: gene PDPK1; direct

The next experiment concerns the target T8, PKG1_alpha (Homo sapiens, UniProt Q13976).
T8 construct: gene PRKG1; isoform alpha

The target in a further experiment is T9, ZAP-70 (Homo sapiens, UniProt P43403).
T9 construct: gene ZAP70

The next experiment addresses T10, ZIPK (Homo sapiens, UniProt O43293).
T10 construct: gene DAPK3

The next experiment addresses T11, p38_delta (Homo sapiens, UniProt O15264).
T11 construct: gene MAPK13

Sequence of AKT2 (P31751 whole entry): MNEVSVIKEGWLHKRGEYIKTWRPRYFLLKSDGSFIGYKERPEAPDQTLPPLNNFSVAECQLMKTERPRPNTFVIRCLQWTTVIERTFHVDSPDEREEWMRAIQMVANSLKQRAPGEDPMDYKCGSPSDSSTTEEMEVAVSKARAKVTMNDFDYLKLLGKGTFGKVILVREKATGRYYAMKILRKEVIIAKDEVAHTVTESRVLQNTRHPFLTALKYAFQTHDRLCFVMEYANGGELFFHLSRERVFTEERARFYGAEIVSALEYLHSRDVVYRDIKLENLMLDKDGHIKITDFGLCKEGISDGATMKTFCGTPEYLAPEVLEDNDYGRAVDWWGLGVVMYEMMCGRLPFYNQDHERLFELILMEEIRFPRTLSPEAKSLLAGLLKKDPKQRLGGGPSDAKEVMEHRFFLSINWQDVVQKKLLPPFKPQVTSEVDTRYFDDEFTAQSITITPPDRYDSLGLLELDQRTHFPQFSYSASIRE
Sequence of TNK2 (Q07912 whole entry): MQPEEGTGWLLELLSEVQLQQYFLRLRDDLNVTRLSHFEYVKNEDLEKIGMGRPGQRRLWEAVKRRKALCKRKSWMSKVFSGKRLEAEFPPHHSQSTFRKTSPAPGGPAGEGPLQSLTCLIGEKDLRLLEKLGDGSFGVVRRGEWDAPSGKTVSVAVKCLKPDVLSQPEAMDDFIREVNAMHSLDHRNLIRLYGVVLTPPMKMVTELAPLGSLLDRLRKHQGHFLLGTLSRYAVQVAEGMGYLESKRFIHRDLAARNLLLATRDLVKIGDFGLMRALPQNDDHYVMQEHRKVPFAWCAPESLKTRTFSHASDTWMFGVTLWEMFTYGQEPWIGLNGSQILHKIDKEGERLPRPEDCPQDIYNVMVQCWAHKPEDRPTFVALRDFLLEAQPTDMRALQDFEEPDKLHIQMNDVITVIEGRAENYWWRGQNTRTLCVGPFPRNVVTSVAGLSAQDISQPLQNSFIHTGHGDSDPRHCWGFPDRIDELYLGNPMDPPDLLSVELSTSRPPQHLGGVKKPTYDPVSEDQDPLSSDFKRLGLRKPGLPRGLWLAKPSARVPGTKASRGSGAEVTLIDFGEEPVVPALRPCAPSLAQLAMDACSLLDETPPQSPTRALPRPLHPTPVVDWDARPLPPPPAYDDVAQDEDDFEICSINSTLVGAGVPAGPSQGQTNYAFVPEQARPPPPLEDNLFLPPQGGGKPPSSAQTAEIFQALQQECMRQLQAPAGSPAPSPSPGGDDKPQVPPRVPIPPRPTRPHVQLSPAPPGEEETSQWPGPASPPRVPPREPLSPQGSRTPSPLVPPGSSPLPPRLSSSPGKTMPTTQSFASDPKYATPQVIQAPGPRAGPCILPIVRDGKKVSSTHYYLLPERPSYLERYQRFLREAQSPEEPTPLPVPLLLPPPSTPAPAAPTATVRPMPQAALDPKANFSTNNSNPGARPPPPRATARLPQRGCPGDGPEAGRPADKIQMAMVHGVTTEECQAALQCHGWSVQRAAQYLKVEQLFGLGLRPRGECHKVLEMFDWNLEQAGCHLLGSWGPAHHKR
Sequence of CDK8/cyclinC (P49336 whole entry): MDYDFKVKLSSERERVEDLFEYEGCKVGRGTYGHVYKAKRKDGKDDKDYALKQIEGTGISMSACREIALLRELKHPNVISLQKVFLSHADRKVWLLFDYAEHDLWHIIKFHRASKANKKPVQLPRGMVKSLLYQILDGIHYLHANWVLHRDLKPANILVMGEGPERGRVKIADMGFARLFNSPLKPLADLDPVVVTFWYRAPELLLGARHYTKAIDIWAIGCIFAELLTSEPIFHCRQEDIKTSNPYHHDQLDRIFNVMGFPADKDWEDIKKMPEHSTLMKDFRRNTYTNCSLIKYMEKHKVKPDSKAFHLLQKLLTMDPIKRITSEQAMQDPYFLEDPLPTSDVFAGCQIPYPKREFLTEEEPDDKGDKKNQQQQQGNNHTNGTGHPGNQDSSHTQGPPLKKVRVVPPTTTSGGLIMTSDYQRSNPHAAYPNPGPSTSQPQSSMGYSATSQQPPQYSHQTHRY
Sequence of CDK8/cyclinC (P24863 whole entry partner): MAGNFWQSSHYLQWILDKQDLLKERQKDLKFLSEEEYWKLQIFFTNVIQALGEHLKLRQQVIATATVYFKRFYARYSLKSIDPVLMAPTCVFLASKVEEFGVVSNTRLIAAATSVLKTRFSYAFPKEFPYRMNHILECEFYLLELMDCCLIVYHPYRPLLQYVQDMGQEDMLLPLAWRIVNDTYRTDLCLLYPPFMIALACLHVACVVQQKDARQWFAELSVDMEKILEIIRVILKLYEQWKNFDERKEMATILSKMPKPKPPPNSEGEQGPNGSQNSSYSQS
T10 sequence (O43293 whole entry): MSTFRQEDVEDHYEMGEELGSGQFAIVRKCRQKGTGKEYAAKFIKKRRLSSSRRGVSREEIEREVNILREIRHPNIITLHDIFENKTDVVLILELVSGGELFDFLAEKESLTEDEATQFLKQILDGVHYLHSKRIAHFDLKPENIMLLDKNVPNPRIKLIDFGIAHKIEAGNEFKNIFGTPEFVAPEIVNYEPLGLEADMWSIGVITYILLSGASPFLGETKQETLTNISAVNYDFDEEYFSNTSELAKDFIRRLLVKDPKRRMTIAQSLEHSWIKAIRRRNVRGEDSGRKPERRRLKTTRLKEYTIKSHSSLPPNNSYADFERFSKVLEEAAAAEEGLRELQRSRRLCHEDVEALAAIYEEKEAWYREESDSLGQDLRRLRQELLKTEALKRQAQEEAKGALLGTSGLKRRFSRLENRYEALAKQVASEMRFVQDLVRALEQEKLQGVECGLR
T2 sequence (Q16566 whole entry): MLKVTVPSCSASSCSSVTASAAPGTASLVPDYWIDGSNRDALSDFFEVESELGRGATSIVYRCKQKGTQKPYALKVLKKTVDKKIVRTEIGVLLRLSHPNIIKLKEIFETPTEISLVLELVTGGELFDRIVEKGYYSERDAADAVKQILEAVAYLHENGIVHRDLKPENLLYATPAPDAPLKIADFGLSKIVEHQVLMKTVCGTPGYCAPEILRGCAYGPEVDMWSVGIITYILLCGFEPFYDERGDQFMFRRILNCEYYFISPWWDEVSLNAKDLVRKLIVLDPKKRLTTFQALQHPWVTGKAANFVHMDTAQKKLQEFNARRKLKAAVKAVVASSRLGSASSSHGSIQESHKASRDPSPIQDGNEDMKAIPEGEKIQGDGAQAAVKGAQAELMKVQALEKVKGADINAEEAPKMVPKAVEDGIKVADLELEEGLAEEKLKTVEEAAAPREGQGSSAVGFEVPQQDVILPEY

For orientation: inhibition means the relative decrease from the control value, in per cent. In the case of `CC#CC(=O)Nc1cccc2c(Oc3ncccc3-c3ccnc(N[C@H]4CCCNC4)n3)c(C)ccc12` [G-7658], the inhibition at 1 µM on ACVR2B is 8.5%; at AKT1, -13.5%; on AKT2 it was 4%; on ALK2 it was 0.5%; at CDK8/cyclinC, 2%; on CamKIV it was -2.5%. The inhibition at 1 µM at DNA-PK was 11%; on DYRK1A it was 2.5%; at EphB3, 4.5%; on ErbB2 it was 3.5%; on IRAK1, 11.5%; on MARK3 it was 8%. Moreover, the inhibition at 1 µM on MST1 was -0.5%; on MYLK3(caMLCK), 4.5%; on NEK6, 17.5%; on PDGFR_alpha, -0.5%; at PDK1(direct) it was 3.5%; at PKG1_alpha it was 3.5%. The inhibition at 1 µM on PLK2 stood at 3%; on SRPK1, 5%; at TNK2 it was 2%; on ZAP-70, 4%; on ZIPK, 0%; at p38_delta, 13.5%.
With `CCOC(=O)Nc1cccc2c(Oc3ncccc3-c3ccnc(N[C@H]4CCCNC4)n3)c(C)ccc12` [G-1749], the inhibition at 1 µM is 18.5% at ACVR2B; -16.5% on AKT1; 6% on AKT2; 1% at ALK2; 2.5% on CDK8/cyclinC; -1.5% at CamKIV. Besides, the inhibition at 1 µM on DNA-PK worked out at 6.5%; on DYRK1A, 4%; at EphB3, 3%; at ErbB2, 7.5%; on IRAK1 it was 9%; at MARK3 it was 8%. The inhibition at 1 µM was 1% at MST1; 10.5% on MYLK3(caMLCK); 2.5% on NEK6; -3.5% at PDGFR_alpha; 5% at PDK1(direct); 1% at PKG1_alpha. Also, the inhibition at 1 µM was determined as 3% on PLK2; 6.5% at SRPK1; 1% at TNK2; 3% on ZAP-70; 1% at ZIPK; 11.5% on p38_delta.

(Values after PMC7736581, “Activation of the IRE1 RNase through remodeling of the kinase front pocket by ATP-competitive ligands” (Nature Communications, 2020).)
